The source of these data is patent publication US10954300B2, “Use of pentoxifylline with immune checkpoint-blockade therapies for the treatment of melanoma” (THE TRUSTEES OF COLUMBIA UNIVERSITY IN THE CITY OF NEW YORK, priority 2015, dated 2021).

“Also recorded” adds a separate entry of the source.

Experiment [1] deals with B16F1 melanoma cells. The experiment is described as follows: qPCR on total tumor RNA at D16, early PTXF treatment. In kind it is in vivo, C57Bl/6J mice.
Experiment [2] deals with B16F1 melanoma cells. As to the kind of experiment: Established B16F1 melanoma, PTXF with or without checkpoint-blockade mAb. In kind it is in vivo, C57Bl/6 WT mice. The settings on record: for tumor size / tumor growth (growth curves): PTXF 50 mg/kg and/or anti-PD-1 mAb from D5-D6, vs control. How it is done:
Pentoxifylline (Sigma) powder was dissolved in PBS1X and sterile filtered prior to each injection. For the early regimen of pentoxifylline treatment, mice were injected intra-peritoneally with 50 mg/kg pentoxifylline diluted in 100 μL PBS1X at days 0, 1, 2, 3, 5, 7, and 9. For the “curative” regimen, mice were treated daily from day 5-6 (when the tumor was visible and palpable) to day 11, following the same methods. IT-603 was reconstituted in DMSO and stored at −80° C. It then was diluted in PBS1X and sterile-filtered prior to each injection. Mice were injected intra-peritoneally with 10 mg/kg […] diluted in 100 μL PBS1X at days 0, 1, 2, 3, 5, 7 and 9.
Anti-PD-1 antibody (clone RMP1-14, BioXCell®) or isotype control (polyclonal IgG, BioXCell®) is available commercially. The antibodies were aliquoted in sterile PBS1X and stored at −80° C. until use. Mice are injected intra-peritoneally with […] of anti-PD-1 or isotype antibody, diluted in 100 μL sterile PBS1X at days 6, 8 and 10. All injections are performed using a 27.5 gauge needle, following the standard precautions.
5×10^4 B16F1 or 5×10^5 CT-26 or BRAF^CAPten^−/− cells diluted in sterile PBS1X were injected subcutaneously into the shaved flank of each mouse. For metastasis experiments, 2.5×10^4 B16F10 cells were injected intravenously in the tail vein. […] Anti-PD-1 (RMP1-14), anti-PD-L1 (10F.9G2) and anti-CD8 (YTS.169-4) mAbs were obtained from BioXCell. Rat IgG isotype control was from R&D Systems. […] In FIG. 11A-11G, Balb/c mice harboring CT-26 tumors received a suboptimal dose of 100 μg of anti-PD-1.
Tumor growth was monitored daily.

A further experiment has as its system B16F10 cells. As to the kind of experiment: B16F10 metastatic melanoma, lung foci. The settings on record: B16F10 i.v.; early PTXF treatment. The class given is in vivo, C57Bl/6J mice. The protocol: 5×10^4 B16F1 or 5×10^5 CT-26 or BRAF^[…]^-/- cells diluted in sterile PBS1X were injected subcutaneously into the shaved flank of each mouse. For metastasis experiments, 2.5×10^4 B16F10 cells were injected intravenously in the tail vein. […] Anti-PD-1 (RMP1-14), anti-PD-L1 (10F.9G2) and anti-CD8 (YTS.169-4) mAbs were obtained from BioXCell. Rat IgG isotype control was from R&D Systems.

Experiment [3] has as its system Treg cells. As to the kind of experiment: In vitro suppression assay with PTXF-treated Treg cells. The class given is cell-based, mice. The settings on record: vs mock-treated Treg cells.
The test system of experiment [4] is B16F1 melanoma cells. The experiment is described as follows: Flow cytometry of tumor infiltrates (TILs) at D16, early PTXF treatment. In kind it is in vivo, C57Bl/6J mice. The protocol: Cells were isolated from thymus, spleen and lymph nodes by mechanical desegregation in PBS+ FBS 3%. For tumor-infiltrating cell suspensions, total tumors were digested in DMEM (Gibco) supplemented with 1 mg/ml collagenase type IV (Sigma) and 1 mg/ml DNase I (Sigma) for 40 minutes at 37° C., followed by centrifugation in a 36% Percoll solution. For intracellular cytokines analyses, cell suspensions were incubated 3 hours with PMA (Sigma, 50 ng/mL), ionoymycin (Sigma, 1 μg/mL) in the presence of Golgi Plug (BD), or incubated 4 hours with mitomycin C-treated WT splenocytes loaded with 10 mg/mL gp100/pmel 17 peptide (Neo Biolab) in the presence of Golgi Plug. Cells were then stained with mAbs purchased by eBioscience or Tonbo Bioscience. Foxp3 and cytokine staining were performed using the eBioscience kit and protocol. Cells were acquired on a LSR II (BD Biosciences) and analyzed with FlowJo (Tree Star) software.
(Flow cytometry measures light scatter and fluorescence of single cells or particles in a stream.)

For experiment [5], the system named is Treg cells. As to the kind of experiment: RNA-Seq of PTXF-treated Treg cells. In kind it is cell-based, mice. The settings on record: 500 μg/mL PTXF. The protocol: Total cells suspensions were then activated with 5 μg/mL plate-coated anti-mCD3, 1 μg/ml soluble anti-mCD28 (BioLegend) and 10 ng/mL mIL-2, overnight at 37 C. Treg cells were then washed for further use. Total RNA was extracted using a Qiagen Rneasy Mini Kit with DNase treatment. For qPCR, RNA was reverse transcribed by Superscript III (Invitrogen). cDNAs were used for PCR with SYBR Green reagents (Quanta Biosciences, Gaithersburg, Md.) on a C1000 Touch thermal cycler (Bio Rad, Hercules, Calif.). The data was normalized to GAPDH expression. Primers sequences can be sent under request. For RNA-sequencing, libraries were prepared using an Illumina TruSeq Library Kit and sequenced by an Illumina 2500 instrument. Upon sequencing, raw FASTQ files were aligned on the mm10 genome using STAR aligner with default parameters (Dobin et al., 2013). Aligned fragments were then counted and annotated using Rsamtools v3.2 and the TxDb.Mmusculus.UCSC.mm10.knownGene' version 3.1.2 transcript database respectively. Normalized FPKM (fragments per kilobase per million mapped reads) were obtained using the robust FPKM estimate function of DeSeq2 v1.10.1 after removing the batch effect using the ComBat function of the sva package v3.18.0. Differentially expressed genes were obtained using the DESeqResults function of the same package. All p-values were adjusted for multiple comparison using the Benjamini & Hochberg FDR algorithm. For gene set enrichment analysis, the GSEA software was used, and Molecular Signature Database (MSigDB) including the ImmuneSigDB (C7 collection)(Godec et al., 2016; Subramanian et al., 2005).

Consider `CC(=O)CCCCn1c(=O)c2c(ncn2C)n(C)c1=O` [PTXF, 1-(5-oxohexyl)-3,7-dimethylxanthine], for which the “inflammatory response (activated T-cell markers and cytokines) in total tumors” value with B16F1 melanoma cells [1] is listed as “dramatic enhancement of the inflammatory response”. Further, the “increase of Ccl22 mRNA” value in the experiment with B16F1 melanoma cells [1] (minor and non-significant) was found to be 1.2 ×. The “tumor size / tumor growth (growth curves)” value in the experiment on B16F1 melanoma cells [2] is listed as “did not change the growth curves; also recorded: did not significantly reduce tumor size”. For the same compound, in the experiment with B16F1 melanoma cells [2] (listed as pentoxifylline), the “tumor size / tumor growth (growth curves)” value is recorded as “did not significantly reduce tumor size”. The “tumor growth, anti-PD-L1 instead of anti-PD-1” value with B16F1 melanoma cells [2] (PTXF and/or anti-PD-L1 mAb) is “did not affect tumor growth”. Also, the “total number of metastatic foci in lungs” value in the experiment with B16F10 cells is recorded as “significantly decreased”. For the same compound, the “suppression of effector T-cell proliferation by PTXF-treated Treg cells” value in the experiment on Treg cells [3] is on record as “modest, but significant, reduction”. In the experiment on B16F1 melanoma cells [4], the “CD44 and Ki67 expression on CD4+ Tconv TILs” value is “increased”; the “infiltration of total T cells and IFN-γ-producing CD4 and CD8 T-cells into the tumors” value was “increase in infiltration”; the “proportion of Treg cells in tumor infiltrates” value is on record as “decrease in the proportion of Treg cells”. For the same compound, in the experiment on Treg cells [5], the “Foxp3 mRNA” value is reported as “unaffected”; the “expression of Cbl-b” value is “up-regulated”; the “expression of Gzmb and Tgfb1” value is given as “decreased expression”; the “expression of c-Rel mRNA” value is given as “unaffected”. In addition, the “expression of genome organizer Sat1” value with Treg cells [5] is “up-regulated”.
